Data from ChEMBL document CHEMBL1201862, “PubChem BioAssay data set” (2004).
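Briefly, cells in 96-well plates were exposed to five compound concentrations for 48 h, and endpoints were estimated by linear interpolation. Here, GI50 denotes the concentration required for 50% inhibition of growth.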 Active and inactive are the calls of the source. Cut-off read from the data, not from the text of the source: active = GI50 up to about 1.1 µM and inactive = higher.

Assays:
Assay in all cases: NCI anticancer screen, dose series, 48 h
M14 = tested on: M14
NCI-H460 = tested on: NCI-H460
SF-295 = tested on: SF-295
PC-3 = tested on: PC-3
HOP-62 = tested on: HOP-62
SF-539 = tested on: SF-539
RXF 393 = tested on: RXF 393
MOLT-4 = tested on: MOLT-4
OVCAR-5 = tested on: OVCAR-5
A498 = tested on: A498
HCT-116 = tested on: HCT-116
SNB-75 = tested on: SNB-75
SW-620 = tested on: SW-620
NCI-H522 = tested on: NCI-H522
SR = tested on: SR
ACHN = tested on: ACHN
MDA-N = tested on: MDA-N
MCF7 = tested on: MCF7
HL-60 = tested on: HL-60
SK-OV-3 = tested on: SK-OV-3

Structure (SMILES)	GI50 (M14)	GI50 (NCI-H460)	GI50 (SF-295)	GI50 (PC-3)	GI50 (HOP-62)	GI50 (SF-539)	GI50 (RXF 393)	GI50 (MOLT-4)	GI50 (OVCAR-5)	GI50 (A498)	GI50 (HCT-116)	GI50 (SNB-75)	GI50 (SW-620)	GI50 (NCI-H522)	GI50 (SR)	GI50 (ACHN)	GI50 (MDA-N)	GI50 (MCF7)	GI50 (HL-60)	GI50 (SK-OV-3)
O=C1C(Cl)=C(N(C(=O)c2ccccc2)C(=O)c2ccccc2)C(=O)c2ccccc21	14.4 µM (inactive)	5.12 µM (inactive)	28.2 µM (inactive)	9.18 µM (inactive)	49 µM (inactive)	4.3 µM (inactive)	3.66 µM (inactive)	55 µM (inactive)	12.2 µM (inactive)	> 100 µM (inactive)	4.12 µM (inactive)	3.68 µM (inactive)	5.15 µM (inactive)	5.7 µM (inactive)	15.5 µM (inactive)	3.17 µM (inactive)	13.1 µM (inactive)	10.1 µM (inactive)	1.08 µM (active)	40.6 µM (inactive)
O=C1CC(Cl)c2c1csc2Br (stereo not given)	13.9 µM (inactive)	20.4 µM (inactive)	23.7 µM (inactive)	12.8 µM (inactive)	14.5 µM (inactive)	3 µM (inactive)	19 µM (inactive)	3.66 µM (inactive)	18.2 µM (inactive)	24.1 µM (inactive)	15.9 µM (inactive)	19.8 µM (inactive)	3.48 µM (inactive)	3.26 µM (inactive)	4.56 µM (inactive)	15.6 µM (inactive)	19.3 µM (inactive)	6.25 µM (inactive)	21.4 µM (inactive)	18.6 µM (inactive)
COC(=O)c1cc2c(cc1CC1Cc3cc4c(cc3C1)CCC4)CCC2	63.8 µM (inactive)	51.1 µM (inactive)	55 µM (inactive)	74.3 µM (inactive)	> 100 µM (inactive)	79.4 µM (inactive)	34 µM (inactive)	17.2 µM (inactive)	43.5 µM (inactive)	> 100 µM (inactive)	35.6 µM (inactive)	40.1 µM (inactive)	> 100 µM (inactive)	25.7 µM (inactive)	19.1 µM (inactive)	43.4 µM (inactive)	36.1 µM (inactive)	25.4 µM (inactive)	15.3 µM (inactive)	> 100 µM (inactive)
